The values below come from patent US11396517B1, “Exo-aza spiro inhibitors of menin-MLL interaction” (Janssen Pharmaceutica NV, priority 2017, dated 2022).

One assay deals with MV-4-11. In words: Proliferation assay A (spheroid assay) MV-4-11. The conditions noted are these: Homo sapiens, MV4-11, 192 h, MV-4-11 cells, 8 d, AUC of confluence against time, absolute IC50; read-out: (3a) Spheroid assay MV-4-11 (IC50(μM)) Assay A. The class given is cell-based, human. On the procedure: 3a) Proliferation Assay A
The anti-proliferative effect of menin/MLL protein/protein interaction inhibitor test compounds was assessed in human leukemia cell lines. The cell lines MV-4-11 and MOLM14 harbor MILL translocations and express the MILL fusion proteins MLL-AF4 and MLL-AF9, respectively, as well as the wildtype protein from the second allele. […] K562 was used as a control cell line containing two MLL wildtype alleles in order to exclude compounds that display general cytotoxic effects.
MV-4-11 and MOLM14 were cultured in RPMI-1640 (Sigma Aldrich) supplemented with 10% fetal bovine serum (HyClone), 2 mM L-glutamine (Sigma Aldrich) and 50 μg/ml gentamycin (Gibco). K562 were propagated in RPMI-1640 (Sigma Aldrich) supplemented with 20% fetal bovine serum (HyClone), 2 mM L-glutamine (Sigma Aldrich) and 50 μg/ml gentamycin (Gibco).
In order to assess the anti-proliferative effects, 1,500 MV-4-11, 300 MOLM14 or 750 K562 cells were seeded in 200 μl media per well in 96-well round bottom, ultra-low attachment plates (Costar, catalogue number 7007). Cell seeding numbers were chosen based on growth curves to ensure linear growth throughout the experiment. Test compounds were added at different concentrations and the DMSO content was normalized to 0.3%. Cells were incubated for 8 d at 37° C. and 5% CO2. Spheroid like growth was monitored in real-time by live-cell imaging (IncuCyteZOOM, Essenbio, 4× objective) acquiring one image every four hours for 8 d. Confluence (%) as a measure of spheroid size was determined using an integrated analysis tool.
In order to determine the cumulative effect of the test compounds over time, the area under the curve (AUC) in a plot of confluence against time was calculated. Confluence at the beginning of the experiment (t=0) was used as baseline for the AUC calculation.
Absolute IC50 values were calculated according to the following procedure: % Control=(AUC sample/AUC control)*100
AUC control mean AUC of control values (cells without compound/DMSO as vehicle control)
A non-linear curve fit was applied using the least squares (ordinary) fit method to the plot of % control versus compound concentration. Based on this, the absolute IC50 value (half maximal inhibitory concentration of the test compound causing an anti-proliferative effect of 50% relative to the vehicle control) was calculated.

Another assay has as its target T1, menin (Homo sapiens, UniProt O00255, T541A).
T1 construct: Menin (a.a. 1-610-6×his tag)
T1 sequence (O00255 with tags, fused parts or gaps T541A): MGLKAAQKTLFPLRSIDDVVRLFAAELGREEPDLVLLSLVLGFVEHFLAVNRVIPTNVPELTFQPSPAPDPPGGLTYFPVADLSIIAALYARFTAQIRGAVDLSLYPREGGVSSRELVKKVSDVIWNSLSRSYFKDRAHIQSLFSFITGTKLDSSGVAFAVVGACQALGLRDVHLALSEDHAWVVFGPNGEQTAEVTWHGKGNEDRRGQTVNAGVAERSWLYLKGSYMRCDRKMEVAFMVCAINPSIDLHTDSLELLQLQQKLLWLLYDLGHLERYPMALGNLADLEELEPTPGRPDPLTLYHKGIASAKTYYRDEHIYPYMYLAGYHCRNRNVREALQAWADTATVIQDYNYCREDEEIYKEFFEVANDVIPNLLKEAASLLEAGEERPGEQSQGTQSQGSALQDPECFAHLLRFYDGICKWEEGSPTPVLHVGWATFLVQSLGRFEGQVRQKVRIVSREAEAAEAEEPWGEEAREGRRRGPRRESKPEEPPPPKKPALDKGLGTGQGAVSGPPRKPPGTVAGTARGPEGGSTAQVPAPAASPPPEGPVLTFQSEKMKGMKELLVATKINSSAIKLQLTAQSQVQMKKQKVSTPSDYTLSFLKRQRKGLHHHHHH
In words: Menin/MLL homogenous time-resolved fluorescence (HTRF) assay. The class given is binding. The method in brief:
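Displacement of 75 nM FITC-MBM1 from terbium-cryptate-labeled His-tagged menin 1-610 ([…]) was read as the 520/490 nm HTRF ratio. Compound (11-point, 3-fold series) got 5 min with menin before peptide, then 15 min at ambient; 0.5% DMSO, Tris pH 7.5.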

A further assay deals with MOLM14. In words: Proliferation assay B (spheroid assay) MOLM14. The class given is cell-based, human. Particulars: MOLM14 cells, confluence at day 8, absolute IC50, read-out: (3b) Spheroid assay MOLM14 (IC50(μM)) Assay B. The method in brief: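 IC50 derived from % effect on day-8 imaged confluence, scaled between DMSO-treated cells (high) and 1 μM staurosporine (low), using a variable-slope fit constrained 0-100%. Cells seeded as spheroids in ultra-low-attachment plates and exposed to compound for 8 days, 0.3% DMSO.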

[1] abbreviates: location 2, read-out: (2) location 2 Menin HTRF assay (IC50 (nM)).

Where two headings read alike, the source gives them in different places.

For the molecule `O=S(=O)(NC1CC2(CCN(c3ncnc4sc(CC(F)(F)F)cc34)C2)C1)c1ccccc1` (mixture of isomers) [Compound 22], the IC50 amounted to 3.55 µM in the assay on MV-4-11 and 450 nM on menin (setting [1]).
The matching figures for `FC(F)(F)Cc1cc2c(N3CCC4(CC(Nc5ccccc5)C4)C3)ncnc2s1` (mixture of isomers) [Compound 35]: 4.9 µM and 48.6 nM.
The matching figures for `CN(C)CC1CC2(CCN(c3ncnc4sc(CC(F)(F)F)cc34)C2)C1` (mixture of isomers) [Compound 196]: 3.91 µM and 133 nM.
On to `Nc1nc(N2CCC3(CC(NCc4ccccc4)C3)C2)c2cc(CC(F)(F)F)sc2n1` (mixture of isomers) [Compound 263], for which the IC50 in the assay with MV-4-11 came out at 1.23 µM; at menin (setting [1]), 47.3 nM.
Turning to `CNS(=O)(=O)c1ccc(NC2CC3(CCN(c4ncnc5sc(CC(F)(F)F)cc45)C3)C2)cc1` (mixture of isomers) [Compound 316], the values for the IC50 in the assay with MV-4-11 and at menin (setting [1]) were 1.26 µM and 8.8 nM, respectively.
The corresponding values for `FC(F)(F)Cc1cc2c(N3CCC4(CC(Nc5ccc(-c6cn[nH]c6)cc5)C4)C3)ncnc2s1` (mixture of isomers) [Compound 326] are 0.91 µM and 20.1 nM.
With `CC(=O)Nc1ccc(NC2CC3(CCN(c4ncnc5sc(CC(F)(F)F)cc45)C3)C2)cc1` (mixture of isomers) [Compound 330], the IC50 in the assay with MV-4-11 amounted to 1.26 µM; at menin (setting [1]) it was 19.6 nM.
The corresponding values for `N#CCc1ccc(NC2CC3(CCN(c4nc(N)nc5sc(CC(F)(F)F)cc45)C3)C2)cc1` (mixture of isomers) [Compound 377] are 1.12 µM and 7.5 nM.
For the molecule `CNC(=O)c1ccc(N[C@@H]2CC[C@@]3(CCN(c4ncnc5sc(CC(F)(F)F)cc45)C3)C2)cc1` (stereo in doubt) [Compound 134], the IC50 in the assay with MOLM14 (Homo sapiens, MOLM-14, 192 h) is 1.29 µM; on menin (setting [1]), 1.6 nM.
Take `CNC(=O)c1ccc(N[C@H]2CC[C@@]3(CCN(c4ncnc5sc(CC(F)(F)F)cc45)C3)C2)cc1` (stereo in doubt) [Compound 135]: the IC50 with MOLM14 (Homo sapiens, MOLM-14, 192 h) is > 3.75 µM; on menin (setting [1]) it was 23.9 nM.
In the case of `CNC(=O)c1ccc(N[C@@H]2CC[C@]3(CCN(c4ncnc5sc(CC(F)(F)F)cc45)C3)C2)cc1` (stereo in doubt) [Compound 136], the IC50 is > 3.75 µM with MOLM14 (Homo sapiens, MOLM-14, 192 h) and 409 nM at menin (setting [1]).
The matching figures for `CNC(=O)c1ccc(N[C@H]2CC[C@]3(CCN(c4ncnc5sc(CC(F)(F)F)cc45)C3)C2)cc1` (stereo in doubt) [Compound 137]: > 3.75 µM and 5.7 nM.
The matching figures for `FC(F)(F)Cc1cc2c(N3CC[C@@]4(CC[C@@H](Nc5ccc(-c6cc[nH]n6)cc5)C4)C3)ncnc2s1` (stereo in doubt) [Compound 139]: 0.56 µM and 3.5 nM.
Consider `FC(F)(F)Cc1cc2c(N3CC[C@@]4(CC[C@H](Nc5ccc(-c6cc[nH]n6)cc5)C4)C3)ncnc2s1` (stereo in doubt) [Compound 140], for which the IC50 in the assay with MOLM14 (Homo sapiens, MOLM-14, 192 h) worked out at 1.82 µM; at menin (setting [1]), 30.9 nM.
The matching figures for `FC(F)(F)Cc1cc2c(N3CC[C@]4(CC[C@@H](Nc5ccc(-c6cc[nH]n6)cc5)C4)C3)ncnc2s1` (stereo in doubt) [Compound 141]: 2.3 µM and 3.9 nM.
Regarding `FC(F)(F)Cc1cc2c(N3CC[C@]4(CC[C@H](Nc5ccc(-c6cc[nH]n6)cc5)C4)C3)ncnc2s1` (stereo in doubt) [Compound 142], the half-inhibitory concentration (IC50) with MOLM14 (Homo sapiens, MOLM-14, 192 h) was 0.6 µM; at menin (setting [1]), 45.7 nM.
As to `CNC(=O)c1ccc(NC2CC3(CCN(c4ncnc5sc(CC(F)(F)F)cc45)C3)C2)c(F)c1` (centres unmarked) [Compound 66], the IC50 in the assay on MOLM14 (Homo sapiens, MOLM-14, 192 h) is > 3.75 µM; on menin (setting [1]) it was 26.8 nM.
For `CNC(=O)c1ccc(NC2CC3(CCN(c4ncnc5sc(CC(F)(F)F)cc45)C3)C2)cc1OCCN(C)C` (centres unmarked) [Compound 76], the IC50 in the assay on MOLM14 (Homo sapiens, MOLM-14, 192 h) is > 3.75 µM; at menin (setting [1]), 354 nM.
Regarding `O=C(NCCO)c1ccc(NC2CC3(CCN(c4ncnc5sc(CC(F)(F)F)cc45)C3)C2)cc1` (centres unmarked) [Compound 83], the IC50 is > 3.75 µM with MOLM14 (Homo sapiens, MOLM-14, 192 h) and 58.7 nM on menin (setting [1]).
The corresponding values for `COCCNC(=O)c1ccc(NC2CC3(CCN(c4ncnc5sc(CC(F)(F)F)cc45)C3)C2)cc1` (centres unmarked) [Compound 85] are 1.13 µM and 0.7 nM.
With `O=C(NCCN1CCOCC1)c1ccc(NC2CC3(CCN(c4ncnc5sc(CC(F)(F)F)cc45)C3)C2)cc1` (centres unmarked) [Compound 87], the IC50 was > 3.75 µM with MOLM14 (Homo sapiens, MOLM-14, 192 h) and 191 nM at menin (setting [1]).
As for `CS(=O)(=O)N[C@H]1CC[C@H](NC2CC3(CCN(c4ncnc5sc(CC(F)(F)F)cc45)C3)C2)CC1` (some centres unmarked) [Compound 102], the IC50 with MOLM14 (Homo sapiens, MOLM-14, 192 h) is > 3.75 µM; on menin (location 1, read-out: (2) location 1 Menin HTRF assay (IC50 (nM))) it was 342 nM; on menin (setting [1]), 362 nM.
Consider `CCS(=O)(=O)N[C@H]1CC[C@H](CNC2CC3(CCN(c4ncnc5sc(CC(F)(F)F)cc45)C3)C2)CC1` (some centres unmarked) [Compound 106], for which the IC50 is 3.39 µM in the assay on MOLM14 (Homo sapiens, MOLM-14, 192 h) and 17.8 nM at menin (setting [1]).
Take `O=C1NCCN1Cc1ccc(NC2CC3(CCN(c4ncnc5sc(CC(F)(F)F)cc45)C3)C2)cc1` (centres unmarked) [Compound 107]: the half-inhibitory concentration (IC50) is > 3.75 µM in the assay on MOLM14 (Homo sapiens, MOLM-14, 192 h) and 22.1 nM on menin (setting [1]).
As to `CNC(=O)c1ccc(NC2CC3(CCN(c4ncnc5sc(CC(F)(F)F)cc45)C3)C2)cc1F` (centres unmarked) [Compound 203], the IC50 in the assay with MOLM14 (Homo sapiens, MOLM-14, 192 h) is 2.39 µM; at menin (setting [1]) it was 2.8 nM.
Take `CNC(=O)c1ccc(NC2CC3(CCN(c4ncnc5sc(CC(F)(F)F)cc45)C3)C2)c(C)c1` (centres unmarked) [Compound 212]: the IC50 is > 3.75 µM with MOLM14 and 58.1 nM at menin (setting [1]).
The corresponding values for `CNC(=O)c1ccc(NC2CC3(CCN(c4ncnc5sc(CC(F)(F)F)cc45)C3)C2)cc1C` (centres unmarked) [Compound 237] are > 3.75 µM and 489 nM.
With `CS(=O)(=O)N[C@H]1CC[C@@H](NC2CC3(CCN(c4ncnc5sc(CC(F)(F)F)cc45)C3)C2)CC1` (some centres unmarked) [Compound 272], the IC50 in the assay on MOLM14 worked out at 2.56 µM; at menin (setting [1]) it was 18 nM.
`CS(=O)(=O)N1CC(CC(C#N)c2ccc(NC3CC4(CCN(c5ncnc6sc(CC(F)(F)F)cc56)C4)C3)cc2)C1` (centres unmarked) [Compound 339]: the IC50 in the assay with MOLM14 (Homo sapiens, MOLM-14, 192 h) worked out at 2.41 µM; at menin (setting [1]) it was 5.1 nM.
The corresponding values for `CS(=O)(=O)N1CCN(CC(O)c2ccc(NC3CC4(CCN(c5ncnc6sc(CC(F)(F)F)cc56)C4)C3)cc2)CC1` (centres unmarked) [Compound 354] are > 3.75 µM and 43.7 nM.
Regarding `CS(=O)(=O)N1CCC(C(N)=O)(c2ccc(NC3CC4(CCN(c5ncnc6sc(CC(F)(F)F)cc56)C4)C3)cc2)CC1` (centres unmarked) [Compound 376], the IC50 with MOLM14 (Homo sapiens, MOLM-14, 192 h) was > 3.75 µM; on menin (setting [1]), 30.6 nM.
The corresponding values for `O=C(c1ccc(NC2CC3(C2)CN(c2ncnc4sc(CC(F)(F)F)cc24)C3)cc1)N1CCOCC1` [Compound 423] are > 3.75 µM and 135 nM.

As a reminder, the IC50 is the concentration that inhibits the measured activity by half.
